Reference: patent US9980943B2, “Methods of treating muscular dystrophy” (BOARD OF REGENTS OF THE NEVADA SYSTEM OF HIGHER EDUCATION, …, priority 2013, dated 2018)

Assays:
Format in all cases: cell-based, mouse
[1] = tested on: β-galactosidase in CMV-LacZ C2C12 myoblasts; assay: CMV-LacZ secondary screen in C2C12 myoblasts (β-Gal stabilizing assay); details: for CMV-LACZ in Myoblasts, value relative to DMSO: SU9516 analogs, C2C12 CMV-LacZ, N=2; for CMV-LACZ in Myoblasts (β-galactosidase activity relative to DMSO): CMV-LacZ C2C12 myoblasts
Description: In order to determine compounds that acted to stabilize β-gal in myogenic cells, a CMV-LacZ C2C12 cell line was used in a secondary screen. The EGFP gene from the pEGFP (Clontech) vector was replaced by LACZ PCR product with digests of the vector/PCR product performed using EcoRI (NEB) and NotI (NEB) and ligated using T4 DNA Ligase (NEB) following standard procedures to produce the CMV-LACZ vector. The LACZ gene was generated by PCR from the pBK-RSV (Stratagene) vector using primers LACZ EcoRI F- and LACZ NotI R-. The CMV-LACZ vector was then digested with AfIII (NEB) to linearize the construct, which was then transfected in C2C12 myoblasts using Lipofectamine 2000 (Invitrogen) following the manufacturer's instructions. […] Clonal lines were selected and screened for βgal levels using the myoblast FDG assay.
The assays were used the original 96-well format and new dose-response curves for myoblasts (N=3-6 replicates for each data point), myotubes (N=3-6 replicates for data point), and CMV-LacZ secondary assay (N=2 replicates for each data point) using concentrations of 0.5 μM, 1 μM, 5 μM, 10 μM, 20 μM, and 40 μM (Tables 9-16).

[2] = tested on: α7 integrin (LacZ reporter in α7+/LacZ myotubes); assay: Myotube α7 integrin FDG assay (Burkin assay in myotubes, 96-well); details: for Burkin Assay in Myotubes, value relative to DMSO: SU9516 analogs, 96-well, N=3-6
[3] = tested on: α7 integrin (LacZ reporter in α7βgal+/− myoblasts); assay: Myoblast α7+/LacZ integrin FDG assay (Burkin assay in myoblasts, 96-well); details: 96-well; for Burkin Assay in Myoblasts, value relative to DMSO: SU9516 analogs, N=3-6; for Burkin Assay in Myoblasts, signal relative to DMSO: α7+/LacZ myoblasts
[4] = tested on: β-galactosidase in CMV-LacZ C2C12 myotubes; assay: CMV-LacZ secondary screen in C2C12 myotubes (β-Gal stabilizing assay); details: for CMV-LACZ in Myotubes, value relative to DMSO: SU9516 analogs, C2C12 CMV-LacZ, N=2; for CMV-LACZ in Myotubes, signal relative to DMSO: C2C12 CMV-LacZ myotubes, fold relative to DMSO
Outline: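 CMV-LacZ C2C12 line (clonal, FDG-screened); myoblasts/myotubes dosed 0.5–40 μM (0.5, 1, 5, 10, 20, 40 μM); n=2 per point; β-gal stabilization read-out.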

O=C1C(c2c(O)[nH]c3ccccc23)=Nc2ccccc21 [NCGC00179302-02]
CMV-LACZ in Myoblasts, value relative to DMSO ([1]; 0.5 uM): 1.1867 | CMV-LACZ in Myoblasts, value relative to DMSO ([1]; 5 uM): 2.4679 | CMV-LACZ in Myoblasts, value relative to DMSO ([1]; 10 uM): 1.6628 | CMV-LACZ in Myoblasts, value relative to DMSO ([1]; 20 uM): 1.0247 | CMV-LACZ in Myoblasts, value relative to DMSO ([1]; 40 uM): 1.2873 | Burkin Assay in Myotubes, value relative to DMSO ([2]; 0.5 uM): 0.9349 | Burkin Assay in Myotubes, value relative to DMSO ([2]; 1 uM): 0.9377 | Burkin Assay in Myotubes, value relative to DMSO ([2]; 5 uM): 0.8181 | Burkin Assay in Myotubes, value relative to DMSO ([2]; 10 uM): 0.7913 | Burkin Assay in Myotubes, value relative to DMSO ([2]; 20 uM): 0.682 | Burkin Assay in Myotubes, value relative to DMSO ([2]; 40 uM): 0.6871 | Burkin Assay in Myoblasts, value relative to DMSO ([3]; 0.5 uM): 1.061 | Burkin Assay in Myoblasts, value relative to DMSO ([3]; 1 uM): 1.0859 | Burkin Assay in Myoblasts, value relative to DMSO ([3]; 5 uM): 0.606 | Burkin Assay in Myoblasts, value relative to DMSO ([3]; 10 uM): 0.7163 | Burkin Assay in Myoblasts, value relative to DMSO ([3]; 20 uM): 0.843 | Burkin Assay in Myoblasts, value relative to DMSO ([3]; 40 uM): 0.8067 | CMV-LACZ in Myotubes, value relative to DMSO ([4]; 0.5 uM): 0.9618 | CMV-LACZ in Myotubes, value relative to DMSO ([4]; 1 uM): 0.9736 | CMV-LACZ in Myotubes, value relative to DMSO ([4]; 5 uM): 1.1533 | CMV-LACZ in Myotubes, value relative to DMSO ([4]; 10 uM): 0.9196 | CMV-LACZ in Myotubes, value relative to DMSO ([4]; 20 uM): 1.0030 | CMV-LACZ in Myotubes, value relative to DMSO ([4]; 40 uM): 1.1410

Cc1cc([N+](=O)[O-])ccc1NC(=O)C(C)N1CCN(c2ccccn2)CC1 (centres unmarked) [MLS000764729-01]
CMV-LACZ in Myoblasts (β-galactosidase activity relative to DMSO) ([1]; 0.5 uM): 0.9865 | CMV-LACZ in Myoblasts (β-galactosidase activity relative to DMSO) ([1]; 1 uM): 0.9520 | CMV-LACZ in Myoblasts (β-galactosidase activity relative to DMSO) ([1]; 5 uM): 1.0259 | CMV-LACZ in Myoblasts (β-galactosidase activity relative to DMSO) ([1]; 10 uM): 0.8880 | CMV-LACZ in Myoblasts (β-galactosidase activity relative to DMSO) ([1]; 20 uM): 1.1200 | CMV-LACZ in Myoblasts (β-galactosidase activity relative to DMSO) ([1]; 40 uM): 0.7504 | Burkin Assay in Myotubes, α7 integrin LacZ reporter signal relative to DMSO ([2]; 0.5 uM): 1.055 | Burkin Assay in Myotubes, α7 integrin LacZ reporter signal relative to DMSO ([2]; 1 uM): 1.084 | Burkin Assay in Myotubes, α7 integrin LacZ reporter signal relative to DMSO ([2]; 5 uM): 1.008 | Burkin Assay in Myotubes, α7 integrin LacZ reporter signal relative to DMSO ([2]; 10 uM): 0.972 | Burkin Assay in Myotubes, α7 integrin LacZ reporter signal relative to DMSO ([2]; 20 uM): 0.681 | Burkin Assay in Myotubes, α7 integrin LacZ reporter signal relative to DMSO ([2]; 40 uM): 0.6075 | Burkin Assay in Myoblasts, signal relative to DMSO ([3]; 0.5 uM): 1.088 | Burkin Assay in Myoblasts, signal relative to DMSO ([3]; 1 uM): 1.0582 | Burkin Assay in Myoblasts, signal relative to DMSO ([3]; 5 uM): 0.9816 | Burkin Assay in Myoblasts, signal relative to DMSO ([3]; 10 uM): 0.9694 | Burkin Assay in Myoblasts, signal relative to DMSO ([3]; 20 uM): 0.9581 | Burkin Assay in Myoblasts, signal relative to DMSO ([3]; 40 uM): 0.726 | CMV-LACZ in Myotubes, signal relative to DMSO ([4]; 0.5 uM): 1.0358 | CMV-LACZ in Myotubes, signal relative to DMSO ([4]; 1 uM): 1.1432 | CMV-LACZ in Myotubes, signal relative to DMSO ([4]; 5 uM): 1.0779 | CMV-LACZ in Myotubes, signal relative to DMSO ([4]; 10 uM): 0.9634 | CMV-LACZ in Myotubes, signal relative to DMSO ([4]; 20 uM): 0.9656 | CMV-LACZ in Myotubes, signal relative to DMSO ([4]; 40 uM): 1.1900

CN(CC(=O)Nc1cccc(F)c1)C(=O)c1ccc(-c2ccc(Cl)cc2)o1 [MLS001078811-01]
CMV-LACZ in Myoblasts (β-galactosidase activity relative to DMSO) ([1]; 0.5 uM): 1.2397 | CMV-LACZ in Myoblasts (β-galactosidase activity relative to DMSO) ([1]; 1 uM): 1.2290 | CMV-LACZ in Myoblasts (β-galactosidase activity relative to DMSO) ([1]; 5 uM): 0.7927 | CMV-LACZ in Myoblasts (β-galactosidase activity relative to DMSO) ([1]; 10 uM): 0.6873 | CMV-LACZ in Myoblasts (β-galactosidase activity relative to DMSO) ([1]; 20 uM): 0.8393 | CMV-LACZ in Myoblasts (β-galactosidase activity relative to DMSO) ([1]; 40 uM): 0.9014 | Burkin Assay in Myotubes, α7 integrin LacZ reporter signal relative to DMSO ([2]; 0.5 uM): 0.9163 | Burkin Assay in Myotubes, α7 integrin LacZ reporter signal relative to DMSO ([2]; 1 uM): 0.9064 | Burkin Assay in Myotubes, α7 integrin LacZ reporter signal relative to DMSO ([2]; 5 uM): 0.9816 | Burkin Assay in Myotubes, α7 integrin LacZ reporter signal relative to DMSO ([2]; 10 uM): 0.8773 | Burkin Assay in Myotubes, α7 integrin LacZ reporter signal relative to DMSO ([2]; 20 uM): 0.6307 | Burkin Assay in Myotubes, α7 integrin LacZ reporter signal relative to DMSO ([2]; 40 uM): 0.4598 | Burkin Assay in Myoblasts, signal relative to DMSO ([3]; 0.5 uM): 0.9376 | Burkin Assay in Myoblasts, signal relative to DMSO ([3]; 1 uM): 0.9926 | Burkin Assay in Myoblasts, signal relative to DMSO ([3]; 5 uM): 0.9583 | Burkin Assay in Myoblasts, signal relative to DMSO ([3]; 10 uM): 0.891 | Burkin Assay in Myoblasts, signal relative to DMSO ([3]; 20 uM): 1.681 | Burkin Assay in Myoblasts, signal relative to DMSO ([3]; 40 uM): 0.7411 | CMV-LACZ in Myotubes, signal relative to DMSO ([4]; 0.5 uM): 0.8486 | CMV-LACZ in Myotubes, signal relative to DMSO ([4]; 1 uM): 0.9086 | CMV-LACZ in Myotubes, signal relative to DMSO ([4]; 5 uM): 1.1571 | CMV-LACZ in Myotubes, signal relative to DMSO ([4]; 10 uM): 0.9981 | CMV-LACZ in Myotubes, signal relative to DMSO ([4]; 20 uM): 1.0510 | CMV-LACZ in Myotubes, signal relative to DMSO ([4]; 40 uM): 0.6710

COc1ccc(CN2CCNC(=O)C2CC(=O)NCCc2c[nH]c3ccccc23)c(OC)c1 (centres unmarked) [MLS000734270-01]
CMV-LACZ in Myoblasts (β-galactosidase activity relative to DMSO) ([1]; 0.5 uM): 0.9296 | CMV-LACZ in Myoblasts (β-galactosidase activity relative to DMSO) ([1]; 1 uM): 0.8379 | CMV-LACZ in Myoblasts (β-galactosidase activity relative to DMSO) ([1]; 5 uM): 0.9337 | CMV-LACZ in Myoblasts (β-galactosidase activity relative to DMSO) ([1]; 10 uM): 0.9468 | CMV-LACZ in Myoblasts (β-galactosidase activity relative to DMSO) ([1]; 20 uM): 1.0122 | CMV-LACZ in Myoblasts (β-galactosidase activity relative to DMSO) ([1]; 40 uM): 0.9548 | Burkin Assay in Myotubes, α7 integrin LacZ reporter signal relative to DMSO ([2]; 0.5 uM): 0.941 | Burkin Assay in Myotubes, α7 integrin LacZ reporter signal relative to DMSO ([2]; 1 uM): 0.8975 | Burkin Assay in Myotubes, α7 integrin LacZ reporter signal relative to DMSO ([2]; 5 uM): 1.083 | Burkin Assay in Myotubes, α7 integrin LacZ reporter signal relative to DMSO ([2]; 10 uM): 0.9081 | Burkin Assay in Myotubes, α7 integrin LacZ reporter signal relative to DMSO ([2]; 20 uM): 0.8558 | Burkin Assay in Myotubes, α7 integrin LacZ reporter signal relative to DMSO ([2]; 40 uM): 0.8102 | Burkin Assay in Myoblasts, signal relative to DMSO ([3]; 0.5 uM): 1.0135 | Burkin Assay in Myoblasts, signal relative to DMSO ([3]; 1 uM): 1.048 | Burkin Assay in Myoblasts, signal relative to DMSO ([3]; 5 uM): 1.21 | Burkin Assay in Myoblasts, signal relative to DMSO ([3]; 10 uM): 0.955 | Burkin Assay in Myoblasts, signal relative to DMSO ([3]; 20 uM): 0.9739 | Burkin Assay in Myoblasts, signal relative to DMSO ([3]; 40 uM): 0.9873 | CMV-LACZ in Myotubes, signal relative to DMSO ([4]; 0.5 uM): 1.0019 | CMV-LACZ in Myotubes, signal relative to DMSO ([4]; 1 uM): 1.0038 | CMV-LACZ in Myotubes, signal relative to DMSO ([4]; 5 uM): 1.1042 | CMV-LACZ in Myotubes, signal relative to DMSO ([4]; 10 uM): 1.0885 | CMV-LACZ in Myotubes, signal relative to DMSO ([4]; 20 uM): 1.1158 | CMV-LACZ in Myotubes, signal relative to DMSO ([4]; 40 uM): 0.9095
